Here are results for 3 molecules from publication PMC12127850 (RSC Medicinal Chemistry, 2025).

Common to all, as to format: cell-based
Assay [1] concerns the target T1, prostate-specific membrane antigen (PSMA) (Homo sapiens, UniProt Q04609). As to the kind of experiment: blocking of […]-PSiMA uptake in LNCaP cells by […] 2-PMPA.
In assay [2] the target is T1, prostate-specific membrane antigen (PSMA). As to the kind of experiment: in vivo PET blocking of […]-PSiMA uptake in LNCaP tumors.
The target is the same in assay [3]. The experiment in a line: competitive displacement of […]-PSMA-1007 in PSMA-expressing LNCaP cells.

Structures can show the parent of a compound that is named as a salt.

T1 sequence (Q04609 whole entry): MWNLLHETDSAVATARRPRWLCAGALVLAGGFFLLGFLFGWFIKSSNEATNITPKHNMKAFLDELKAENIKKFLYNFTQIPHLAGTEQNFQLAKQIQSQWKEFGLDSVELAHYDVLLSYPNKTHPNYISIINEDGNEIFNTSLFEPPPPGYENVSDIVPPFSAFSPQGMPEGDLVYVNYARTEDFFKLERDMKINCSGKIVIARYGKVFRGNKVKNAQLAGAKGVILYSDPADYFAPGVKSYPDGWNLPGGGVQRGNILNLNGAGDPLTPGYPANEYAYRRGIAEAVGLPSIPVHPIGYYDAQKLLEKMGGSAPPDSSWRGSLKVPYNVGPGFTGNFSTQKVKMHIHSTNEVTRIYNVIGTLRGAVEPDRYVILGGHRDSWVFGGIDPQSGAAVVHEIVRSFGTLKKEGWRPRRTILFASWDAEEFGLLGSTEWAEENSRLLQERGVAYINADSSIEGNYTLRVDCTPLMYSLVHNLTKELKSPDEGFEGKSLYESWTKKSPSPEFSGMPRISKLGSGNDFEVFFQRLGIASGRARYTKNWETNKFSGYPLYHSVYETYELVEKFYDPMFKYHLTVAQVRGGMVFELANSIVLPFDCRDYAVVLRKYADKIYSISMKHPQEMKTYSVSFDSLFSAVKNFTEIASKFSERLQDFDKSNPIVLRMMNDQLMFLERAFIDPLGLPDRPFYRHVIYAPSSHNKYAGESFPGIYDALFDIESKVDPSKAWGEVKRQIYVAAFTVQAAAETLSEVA

On to `O=C(O)CCC(CP(=O)(O)O)C(=O)O` (stereo not drawn) [2-PMPA, 2-(phosphonomethyl)pentanedioic acid], for which the “% blocking at 1 μM” value in assay [1] was 75 % blocking at 1 μM.
For `O=C(O)CC[C@H](NC(=O)N[C@@H](CCCCNC(=O)c1ccc(F)nc1)C(=O)O)C(=O)O` [DCFPyL], the “% reduction of tumor uptake” value in assay [2] was 20 ± 10 % reduction of tumor uptake.
One may read the IC50 as the concentration that inhibits the measured activity by half. A lower IC50 goes with greater potency. `CC(C)(C)[Si](F)(c1ccc(C(=O)N[C@H](CC(=O)O)C(=O)N[C@H](CC(=O)O)C(=O)NCC[N+](C)(C)CCn2cc(CCCCCCCCC(=O)NCCCC[C@H](NC(=O)N[C@@H](CCC(=O)O)C(=O)O)C(=O)O)nn2)cc1)C(C)(C)C` [compound 14, {2-[(2R)-3-Carboxy-2-[(2R)-3-carboxy-2-({4-[di-tert-butyl(fluoro)silyl]phenyl}formamido)propanamido]propanamido]ethyl}({2-[4-(8-{[(5S)-5-carboxy-5-({[(1S)-1,3-dicarboxypropyl]carbamoyl}amino)pentyl]carbamoyl}octyl)-1H-1,2,3-triazol-1-yl]ethyl})dimethylazanium trifluoroacetate]: the IC50 in assay [3] worked out at 154 ± 47 nM.
